Reference: ChEMBL document CHEMBL5385932, “Highly Concentrated Linear Guanidine Amides from the Marine Sipunculid Phascolosoma granulatum” (J Nat Prod, 2024)
Active and inactive are the calls of the source. The calls are words filed in the database; no cut-off is given here.

The compounds below were run on Candida tropicalis (assay: Antifungal activity against Candida tropicalis ATCC750 assessed as effect on fungal growth at 64 ug/ml). Details: dose 64.0 µg/ml.
Type: functional, organism-based
For `CC(C)CC[C@@H](C)C(=O)NCCCCNC(=N)N.O=C(O)C(F)(F)F`, the Activity was “inactive”. In the case of `CC(C)CC[C@@H](C)C(=O)N(C)CCCCNC(=N)N.O=C(O)C(F)(F)F`, the Activity is reported as “inactive”. For `CC(C)CC[C@@H](C)C(=O)NCCCNC(=N)N.O=C(O)C(F)(F)F`, the Activity was “inactive”. For `C/C(=C/CCC(C)C)C(=O)NCCCCNC(=N)N.O=C(O)C(F)(F)F`, the Activity was “inactive”.

Each compound was assayed on Pichia kudriavzevii (assay: Antifungal activity against Candida krusei ATCC6258 assessed as effect on fungal growth at 64 ug/ml). Details: dose 64.0 µg/ml.
Type: functional, organism-based
With `CC(C)CC[C@@H](C)C(=O)NCCCCNC(=N)N.O=C(O)C(F)(F)F` the Activity was “inactive”. With `CC(C)CC[C@@H](C)C(=O)N(C)CCCCNC(=N)N.O=C(O)C(F)(F)F` the Activity was “inactive”. In the case of `CC(C)CC[C@@H](C)C(=O)NCCCNC(=N)N.O=C(O)C(F)(F)F`, the Activity is reported as “inactive”. In the case of `C/C(=C/CCC(C)C)C(=O)NCCCCNC(=N)N.O=C(O)C(F)(F)F`, the Activity is reported as “inactive”.

What follows are compounds tested on Escherichia coli (assay: Antibacterial activity against Escherichia coli ATCC25922 assessed as effect on bacterial growth at 64 ug/ml). Details: dose 64.0 µg/ml.
Type: functional, organism-based
With `CC(C)CC[C@@H](C)C(=O)NCCCCNC(=N)N.O=C(O)C(F)(F)F` the Activity was “inactive”. With `CC(C)CC[C@@H](C)C(=O)N(C)CCCCNC(=N)N.O=C(O)C(F)(F)F` the Activity was “inactive”. For `CC(C)CC[C@@H](C)C(=O)NCCCNC(=N)N.O=C(O)C(F)(F)F`, the Activity was “inactive”. In the case of `C/C(=C/CCC(C)C)C(=O)NCCCCNC(=N)N.O=C(O)C(F)(F)F`, the Activity is reported as “inactive”.

The compounds below were run on A2058 (assay: Cytotoxicity against human A2058 cells assessed as effect on cell viability at 20 ug/ml by MTT assay). Details: dose 20.0 µg/ml.
Type: functional, cell-based
For `CC(C)C[C@H](O)CC/C=C\CNC(=O)CCNC(=N)N.O=C(O)C(F)(F)F`, the Activity was “inactive”. With `CC(C)CC[C@@H](C)C(=O)NCCCCNC(=N)N.O=C(O)C(F)(F)F` the Activity was “inactive”. With `CC(C)CC[C@@H](C)C(=O)N(C)CCCCNC(=N)N.O=C(O)C(F)(F)F` the Activity was “inactive”. In the case of `CC(C)CC[C@@H](C)C(=O)NCCCNC(=N)N.O=C(O)C(F)(F)F`, the Activity is reported as “inactive”. With `CC(C)CC(=O)N(C)CCCCNC(=N)N.O=C(O)C(F)(F)F` the Activity was “inactive”. With `C/C(=C/CCC(C)C)C(=O)NCCCCNC(=N)N.O=C(O)C(F)(F)F` the Activity was “inactive”.

What follows are compounds tested on Staphylococcus aureus (assay: Antibacterial activity against methicillin-susceptible Staphylococcus aureus ATCC29213 assessed as effect on bacterial growth at 64 ug/ml). Details: dose 64.0 µg/ml.
Type: functional, organism-based
With `CC(C)CC[C@@H](C)C(=O)NCCCCNC(=N)N.O=C(O)C(F)(F)F` the Activity was “inactive”. In the case of `CC(C)CC[C@@H](C)C(=O)N(C)CCCCNC(=N)N.O=C(O)C(F)(F)F`, the Activity is reported as “inactive”. For `CC(C)CC[C@@H](C)C(=O)NCCCNC(=N)N.O=C(O)C(F)(F)F`, the Activity was “inactive”. `C/C(=C/CCC(C)C)C(=O)NCCCCNC(=N)N.O=C(O)C(F)(F)F` was tested, and the Activity was “inactive”.

What follows are compounds tested on Aspergillus fumigatus (assay: Antifungal activity against Aspergillus fumigatus ATCC46645 assessed as effect on fungal growth at 64 ug/ml). Details: dose 64.0 µg/ml.
Type: functional, organism-based
For `CC(C)CC[C@@H](C)C(=O)NCCCCNC(=N)N.O=C(O)C(F)(F)F`, the Activity was “inactive”. In the case of `CC(C)CC[C@@H](C)C(=O)N(C)CCCCNC(=N)N.O=C(O)C(F)(F)F`, the Activity is reported as “inactive”. With `CC(C)CC[C@@H](C)C(=O)NCCCNC(=N)N.O=C(O)C(F)(F)F` the Activity was “inactive”. With `C/C(=C/CCC(C)C)C(=O)NCCCCNC(=N)N.O=C(O)C(F)(F)F` the Activity was “inactive”.

Each compound was assayed on Candida parapsilosis (assay: Antifungal activity against Candida parapsilosis ATCC22019 assessed as effect on fungal growth at 64 ug/ml). Details: dose 64.0 µg/ml.
Type: functional, organism-based
In the case of `CC(C)CC[C@@H](C)C(=O)NCCCCNC(=N)N.O=C(O)C(F)(F)F`, the Activity is reported as “inactive”. For `CC(C)CC[C@@H](C)C(=O)N(C)CCCCNC(=N)N.O=C(O)C(F)(F)F`, the Activity was “inactive”. For `CC(C)CC[C@@H](C)C(=O)NCCCNC(=N)N.O=C(O)C(F)(F)F`, the Activity was “inactive”. With `C/C(=C/CCC(C)C)C(=O)NCCCCNC(=N)N.O=C(O)C(F)(F)F` the Activity was “inactive”.

Each compound was assayed on MIA PaCa-2 (assay: Cytotoxicity against human MIA PaCa-2 cells assessed as effect on cell viability at 20 ug/ml by MTT assay). Details: dose 20.0 µg/ml.
Type: functional, cell-based
`CC(C)C[C@H](O)CC/C=C\CNC(=O)CCNC(=N)N.O=C(O)C(F)(F)F` was tested, and the Activity was “inactive”. For `CC(C)CC[C@@H](C)C(=O)NCCCCNC(=N)N.O=C(O)C(F)(F)F`, the Activity was “inactive”. For `CC(C)CC[C@@H](C)C(=O)N(C)CCCCNC(=N)N.O=C(O)C(F)(F)F`, the Activity was “inactive”. For `CC(C)CC[C@@H](C)C(=O)NCCCNC(=N)N.O=C(O)C(F)(F)F`, the Activity was “inactive”. With `CC(C)CC(=O)N(C)CCCCNC(=N)N.O=C(O)C(F)(F)F` the Activity was “inactive”. `C/C(=C/CCC(C)C)C(=O)NCCCCNC(=N)N.O=C(O)C(F)(F)F` was tested, and the Activity was “inactive”.

Each compound was assayed on Candida albicans (assay: Antifungal activity against Candida albicans ATCC64124 assessed as effect on fungal growth at 64 ug/ml). Details: dose 64.0 µg/ml.
Type: functional, organism-based
`CC(C)CC[C@@H](C)C(=O)NCCCCNC(=N)N.O=C(O)C(F)(F)F` was tested, and the Activity was “inactive”. For `CC(C)CC[C@@H](C)C(=O)N(C)CCCCNC(=N)N.O=C(O)C(F)(F)F`, the Activity was “inactive”. `CC(C)CC[C@@H](C)C(=O)NCCCNC(=N)N.O=C(O)C(F)(F)F` was tested, and the Activity was “inactive”. With `C/C(=C/CCC(C)C)C(=O)NCCCCNC(=N)N.O=C(O)C(F)(F)F` the Activity was “inactive”.

The compounds below were run on Acinetobacter baumannii (assay: Antibacterial activity against Acinetobacter baumannii ATCC19606 assessed as effect on bacterial growth at 64 ug/ml). Details: dose 64.0 µg/ml.
Type: functional, organism-based
`CC(C)CC[C@@H](C)C(=O)NCCCCNC(=N)N.O=C(O)C(F)(F)F` was tested, and the Activity was “inactive”. For `CC(C)CC[C@@H](C)C(=O)N(C)CCCCNC(=N)N.O=C(O)C(F)(F)F`, the Activity was “inactive”. With `CC(C)CC[C@@H](C)C(=O)NCCCNC(=N)N.O=C(O)C(F)(F)F` the Activity was “inactive”. With `C/C(=C/CCC(C)C)C(=O)NCCCCNC(=N)N.O=C(O)C(F)(F)F` the Activity was “inactive”.

What follows are compounds tested on Nakaseomyces glabratus (assay: Antifungal activity against Candida glabrata ATCC2001 assessed as effect on fungal growth at 64 ug/ml). Details: dose 64.0 µg/ml.
Type: functional, organism-based
`CC(C)CC[C@@H](C)C(=O)NCCCCNC(=N)N.O=C(O)C(F)(F)F` was tested, and the Activity was “inactive”. With `CC(C)CC[C@@H](C)C(=O)N(C)CCCCNC(=N)N.O=C(O)C(F)(F)F` the Activity was “inactive”. In the case of `CC(C)CC[C@@H](C)C(=O)NCCCNC(=N)N.O=C(O)C(F)(F)F`, the Activity is reported as “inactive”. In the case of `C/C(=C/CCC(C)C)C(=O)NCCCCNC(=N)N.O=C(O)C(F)(F)F`, the Activity is reported as “inactive”.

What follows are compounds tested on A549 (assay: Cytotoxicity against human A549 cells assessed as effect on cell viability at 20 ug/ml by MTT assay). Details: dose 20.0 µg/ml.
Type: functional, cell-based
With `CC(C)C[C@H](O)CC/C=C\CNC(=O)CCNC(=N)N.O=C(O)C(F)(F)F` the Activity was “inactive”. `CC(C)CC[C@@H](C)C(=O)NCCCCNC(=N)N.O=C(O)C(F)(F)F` was tested, and the Activity was “inactive”. With `CC(C)CC[C@@H](C)C(=O)N(C)CCCCNC(=N)N.O=C(O)C(F)(F)F` the Activity was “inactive”. With `CC(C)CC[C@@H](C)C(=O)NCCCNC(=N)N.O=C(O)C(F)(F)F` the Activity was “inactive”. For `CC(C)CC(=O)N(C)CCCCNC(=N)N.O=C(O)C(F)(F)F`, the Activity was “inactive”. `C/C(=C/CCC(C)C)C(=O)NCCCCNC(=N)N.O=C(O)C(F)(F)F` was tested, and the Activity was “inactive”.

Each compound was assayed on MCF7 (assay: Cytotoxicity against human MCF7 cells assessed as effect on cell viability at 20 ug/ml by MTT assay). Details: dose 20.0 µg/ml.
Type: functional, cell-based
`CC(C)C[C@H](O)CC/C=C\CNC(=O)CCNC(=N)N.O=C(O)C(F)(F)F` was tested, and the Activity was “inactive”. `CC(C)CC[C@@H](C)C(=O)NCCCCNC(=N)N.O=C(O)C(F)(F)F` was tested, and the Activity was “inactive”. In the case of `CC(C)CC[C@@H](C)C(=O)N(C)CCCCNC(=N)N.O=C(O)C(F)(F)F`, the Activity is reported as “inactive”. For `CC(C)CC[C@@H](C)C(=O)NCCCNC(=N)N.O=C(O)C(F)(F)F`, the Activity was “inactive”. With `CC(C)CC(=O)N(C)CCCCNC(=N)N.O=C(O)C(F)(F)F` the Activity was “inactive”. With `C/C(=C/CCC(C)C)C(=O)NCCCCNC(=N)N.O=C(O)C(F)(F)F` the Activity was “inactive”.

These compounds were tested on Artemia salina (assay: Toxicity in brine shrimp assessed as lethality at 500 uM measured after 24 to 48 hrs by microscopy). Details: in vivo, time 24-48 hrs.
Type: organism-based
With `CC(C)C[C@H](O)CC/C=C\CNC(=O)CCNC(=N)N.O=C(O)C(F)(F)F` the Activity was “Non-Toxic”. With `CC(C)CC[C@@H](C)C(=O)NCCCCNC(=N)N.O=C(O)C(F)(F)F` the Activity was “Non-Toxic”. In the case of `CC(C)CC[C@@H](C)C(=O)N(C)CCCCNC(=N)N.O=C(O)C(F)(F)F`, the Activity is reported as “Non-Toxic”. For `CC(C)CC[C@@H](C)C(=O)NCCCNC(=N)N.O=C(O)C(F)(F)F`, the Activity was “Non-Toxic”. In the case of `CC(C)CC(=O)N(C)CCCCNC(=N)N.O=C(O)C(F)(F)F`, the Activity is reported as “Non-Toxic”. For `C/C(=C/CCC(C)C)C(=O)NCCCCNC(=N)N.O=C(O)C(F)(F)F`, the Activity was “Non-Toxic”.

Each compound was assayed on HepG2 (assay: Cytotoxicity against human HepG2 cells assessed as effect on cell viability at 20 ug/ml by MTT assay). Details: dose 20.0 µg/ml.
Type: functional, cell-based
With `CC(C)C[C@H](O)CC/C=C\CNC(=O)CCNC(=N)N.O=C(O)C(F)(F)F` the Activity was “inactive”. For `CC(C)CC[C@@H](C)C(=O)NCCCCNC(=N)N.O=C(O)C(F)(F)F`, the Activity was “inactive”. `CC(C)CC[C@@H](C)C(=O)N(C)CCCCNC(=N)N.O=C(O)C(F)(F)F` was tested, and the Activity was “inactive”. `CC(C)CC[C@@H](C)C(=O)NCCCNC(=N)N.O=C(O)C(F)(F)F` was tested, and the Activity was “inactive”. For `CC(C)CC(=O)N(C)CCCCNC(=N)N.O=C(O)C(F)(F)F`, the Activity was “inactive”. For `C/C(=C/CCC(C)C)C(=O)NCCCCNC(=N)N.O=C(O)C(F)(F)F`, the Activity was “inactive”.
